Measured values reported in patent publication US20240247015A1, “PHOSPHORUS DERIVATIVES AS NOVEL SOS1 INHIBITORS” (BAYER AKTIENGESELLSCHAFT, priority 2021, published 2024).

The compounds below were run against interaction of human SOS1 (SOS1) with human K-RasG12C (Homo sapiens (Human), UniProt Q07889) (assay: Biochemical assay: hK-RasG12C interaction assay with hSOS1 (HTRF)). Details: GST-hK-RasG12C with His-hSOS1, 60 min incubation at 20° C., mean, read-out: K-RasG12C - SOS interaction assay IC50 (mean).
Chain of interaction of human SOS1 (SOS1) with human K-RasG12C (Q07889 564-1049 limits assumed): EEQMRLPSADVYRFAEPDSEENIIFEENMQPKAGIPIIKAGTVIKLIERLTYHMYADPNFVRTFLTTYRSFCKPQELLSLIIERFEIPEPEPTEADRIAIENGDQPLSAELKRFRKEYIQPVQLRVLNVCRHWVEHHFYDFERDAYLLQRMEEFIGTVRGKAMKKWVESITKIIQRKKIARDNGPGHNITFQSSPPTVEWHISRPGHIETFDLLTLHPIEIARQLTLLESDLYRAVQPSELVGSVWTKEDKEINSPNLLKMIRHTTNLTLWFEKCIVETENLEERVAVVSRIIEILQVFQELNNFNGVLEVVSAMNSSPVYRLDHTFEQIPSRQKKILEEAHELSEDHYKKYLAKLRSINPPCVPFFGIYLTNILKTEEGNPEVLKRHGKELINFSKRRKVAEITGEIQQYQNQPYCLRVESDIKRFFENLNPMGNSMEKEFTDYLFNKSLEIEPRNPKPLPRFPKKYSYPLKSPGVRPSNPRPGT
Format: binding
Description: Biochemical Assay: hK-RasG12C Interaction Assay with hSOS1 This assay quantifies the equilibrium interaction of human SOS1 (SOS1) with human K-Ras^G12^C (K-RasG12C). Detection of the interaction is achieved by measuring homogenous time-resolved fluorescence resonance energy transfer (HTRF) from antiGST-Europium (FRET donor) bound to GST-K-RasG12C to anti-6His-XL665 bound to His-tagged hSOS1 (FRET-acceptor). The assay buffer containes 5 mM HEPES pH 7.4 (Applichem), 150 mM NaCl (Sigma), […] (Promega), 1 mM DTT (Thermofisher), 0.05% BSA Fraction V, pH 7.0, (ICN Biomedicals), 0.0025% (v/v) Igepal (Sigma) and 100 mM KF (FLUKA). The expression and purification of N-terminally GST-tagged human K-RasG12C (termed GST-hK-RasG12C) and N-terminally His-tagged human SOS1 (termed His10-hSOS1) is described in WO 2019/201848, page 220 line 12-34 and page 222, line 13-25 (expression) and page 222, line 26 to page 223, line 17 (purification). Concentrations of protein batches used are optimized to be within the linear range of the HTRF signal. A Ras working solution is prepared in assay buffer containing typically 10 nM GST-hK-RasG12C and 2 nM antiGST-Eu(K) (Cisbio, France). A SOS1 working solution is prepared in assay buffer containing typically 20 nM His-hSOS1 and 10 nM anti-6His-XL665 (Cisbio, France). An inhibitor control solution is prepared in assay buffer containing nM anti-6His-XL665 without SOS1. Fifty nl of a 100-fold concentrated solution of the test compound in DMSO are transferred into a black microtiter test plate (384 or 1536, Greiner Bio-One, Germany). For this, either a Hummingbird liquid handler (Digilab, MA, USA) or an Echo acoustic system (Labcyte, CA, USA) is used. All steps of the assay are performed at 20° C. A volume of 2.5 μl of the Ras working solution is added to all wells of the test plate using a Multidrop dispenser (Thermo Labsystems). After 2 min preincubation, 2.5 μl of the SOS1 working solution are added to all wells except for those wells at the side of the test plate that are subsequently filled with 2.5 μl of the inhibitor control solution. After 60 min incubation the fluorescence is measured with a Pherastar (BMG, Germany) using the HTRF module (excitation 337 nm, emission 1: 620 nm, emission 2: 665 nm). The ratiometric data (emission 2 divided by emission 1) are normalized using the controls (DMSO=0% inhibition, inhibition control wells with inhibitor control solution=100% inhibition). Compounds are tested in duplicates at up to 11 concentrations (for 20 μM, 5,7 μM, 1,6 μM, 0.47 μM, 0.13 μM, 38 nM, 11 nM, 3.1 nM, 0.89 nM, 0.25 nM and 0.073 nM). IC50 values are calculated by 4-Parameter fitting using a commercial software package (Genedata Screener, Switzerland).

With `Cc1nc(N[C@H](C)c2cccc(C(F)(F)F)c2C)c2cc(P3(=O)CCN(c4cnn(C)c4)CC3)ncc2n1` [Example 39, 4-[2-methyl-4-({(1R)-1-[2-methyl-3-(trifluoromethyl)phenyl]ethyl}amino)pyrido[3,4-d]pyrimidin-6-yl]-1-(1-methyl-1H-pyrazol-4-yl)-1,4lambda^5-azaphosphinan-4-one] as the compound, how does the IC50 read?
The IC50 was 11.1 nM.

For `CCP(=O)(CC)c1cc2c(N[C@H](C)c3cccc(C(F)(F)C(C)(C)O)c3F)nc(C)nc2cn1` [Example 123, 1-{3-[(1R)-1-{[6-(diethylphosphoryl)-2-methylpyrido[3,4-d]pyrimidin-4-yl]amino}ethyl]-2-fluorophenyl}-1,1-difluoro-2-methylpropan-2-ol], which IC50 is on record?
Its IC50 is 59 nM.

How did the IC50 turn out when `Cc1nc(N[C@H](C)c2cccc(C(F)(F)F)c2C)c2cc(P3(=O)CCN(C(=O)[C@H](C)O)CC3)ncc2n1` [Example 165, 1-[(2S)-2-hydroxypropanoyl]-4-[2-methyl-4-{{(1R)-1-[2-methyl-3-(trifluoromethyl)phenyl]ethyl}amino)pyrido[3,4-d]pyrimidin-6-yl]-1,4lambda^5-azaphosphinan-4-one] was run?
The IC50 was 4.37 nM.

Which IC50 does the source give for `CCP(C)(=O)c1cc2c(N[C@H](C)c3cccc(C(F)(F)C(C)O)c3F)nc(C)nc2cn1` (single isomer, unassigned) [Example 73, (2R*)-1-{3-[(1R)-1-{{6-[ethyl(methyl)phosphoryl]-2-methylpyrido[3,4-d]pyrimidin-4-yl}amino)ethyl]-2-fluorophenyl}-1,1-difluoropropan-2-ol] here?
The IC50 was 11.3 nM.

`Cc1nc(N[C@H](C)c2cccc(C(F)(F)F)c2C)c2cc(P(=O)(C(C)C)C(C)C)ncc2n1` [Example 98, 6-[di(propan-2-yl)phosphoryl]-2-methyl-N-{(1R)-1-[2-methyl-3-(trifluoromethyl)phenyl]ethyl}pyrido[3,4-d]pyrimidin-4-amine] was tested. Which IC50 did it give?
The IC50 was 139 nM.

How did the IC50 turn out when `CO[C@H](C)C(=O)N1CCP(=O)(c2cc3c(N[C@H](C)c4cccc(C(F)F)c4F)nc(C)nc3cn2)CC1` [Example 155, 4-[4-{{(1R)-1-[3-(difluoromethyl)-2-fluorophenyl]ethyl}amino)-2-methylpyrido[3,4-d]pyrimidin-6-yl]-1-[(2R)-2-methoxypropanoyl]-1,4lambda^5-azaphosphinan-4-one] was run?
The IC50 was 11.1 nM.

How did the IC50 turn out when `Cc1nc(N[C@H](C)c2cccc(C(F)(F)C(C)(C)O)c2F)c2cc(P(C)(C)=O)nc(C)c2n1` [Example 11, 1-{3-[(1R)-1-{[6-(dimethylphosphoryl)-2,8-dimethylpyrido[3,4-d]pyrimidin-4-yl]amino}ethyl]-2-fluorophenyl}-1,1-difluoro-2-methylpropan-2-ol] was run?
Its IC50 is 52.9 nM.

`Cc1nc(N[C@H](C)c2cccc(C(F)F)c2F)c2cc(P3(=O)CCCC3)ncc2n1` [Example 107, 1-[4-{{(1R)-1-[3-(difluoromethyl)-2-fluorophenyl]ethyl}amino)-2-methylpyrido[3,4-d]pyrimidin-6-yl]-1lambda^5-phospholan-1-one] was tested. Which IC50 did it give?
The IC50 was 20.5 nM.

For `Cc1nc(N[C@H](C)c2cccc(C(F)(F)C(C)(C)O)c2F)c2cc(P(C)(=O)C(C)C)ncc2n1` (stereo partly drawn) [Example 70, 1,1-difluoro-1-{2-fluoro-3-[(1R)-1-({2-methyl-6-[methyl(propan-2-yl)phosphoryl]pyrido[3,4-d]pyrimidin-4-yl}amino)ethyl]phenyl}-2-methylpropan-2-ol], which IC50 is on record?
The IC50 was 27.6 nM.

For `CC(=O)N1CCP(=O)(c2cc3c(N[C@H](C)c4cccc(C(F)F)c4)nc(C)nc3cn2)CC1` [Example 57, 1-acetyl-4-[4-{{(1R)-1-[3-(difluoromethyl)phenyl]ethyl}amino)-2-methylpyrido[3,4-d]pyrimidin-6-yl]-1,4lambda^5-azaphosphinan-4-one], which IC50 is on record?
Its IC50 is 19.3 nM.

With `Cc1nc(N[C@H](C)c2cc(N)cc(C(F)(F)F)c2)c2cc(P(C)(C)=O)ncc2n1` [Example 97, N-{(1R)-1-[3-amino-5-(trifluoromethyl)phenyl]ethyl}-6-(dimethylphosphoryl)-2-methylpyrido[3,4-d]pyrimidin-4-amine] as the compound, how does the IC50 read?
Its IC50 is 13.6 nM.

`Cc1nc(N[C@H](C)c2cccc(C(F)F)c2F)c2cc(P3(=O)CCN(Cc4ccccc4)CC3)ncc2n1` [Example 8, 1-benzyl-4-[4-({(1R)-1-[3-(difluoromethyl)-2-fluorophenyl]ethyl}amino)-2-methylpyrido[3,4-d]pyrimidin-6-yl]-1,4lambda^5-azaphosphinan-4-one] was tested. Which IC50 did it give?
Its IC50 is 94 nM.

How did the IC50 turn out when `Cc1nc(N[C@H](C)c2cccc(C(F)(F)CO)c2F)c2cc(P3(=O)CCCC3)ncc2n1` [Example 63, 1-[4-{{(1R)-1-[3-(1,1-difluoro-2-hydroxyethyl)-2-fluorophenyl]ethyl}amino)-2-methylpyrido[3,4-d]pyrimidin-6-yl]-1lambda^5-phospholan-1-one] was run?
The IC50 was 10.1 nM.

Which IC50 does the source give for `CC(=O)N1CCP(=O)(c2cc3c(N[C@H](C)c4cccc(C(F)(F)C(=O)NC5CC5)c4F)nc(C)nc3cn2)CC1` [Example 44, 2-{3-[(1R)-1-{[6-(1-acetyl-4-oxo-1,4lambda^5-azaphosphinan-4-yl)-2-methylpyrido[3,4-d]pyrimidin-4-yl]amino}ethyl]-2-fluorophenyl}-N-cyclopropyl-2,2-difluoroacetamide] here?
Its IC50 is 15.9 nM.

For `CC(=O)N1CCP(=O)(c2cc3c(N[C@H](C)c4cccc(C(F)(F)F)c4)nc(C)nc3cn2)CC1` [Example 192], which IC50 is on record?
The IC50 was 11.7 nM.

With `CC(=O)N1CCP(=O)(c2cc3c(N[C@H](C)c4cccc(C(F)(F)CN(C(C)=O)C5CC5)c4F)nc(C)nc3cn2)CC1` [Example 202] as the compound, how does the IC50 read?
Its IC50 is 3.89 nM.

Which IC50 does the source give for `CNC(=O)C(F)(F)c1cccc([C@@H](C)Nc2nc(C)nc3cnc(P(C)(C)=O)cc23)c1F` [Example 51, 2-{3-[(1R)-1-{[6-(dimethylphosphoryl)-2-methylpyrido[3,4-d]pyrimidin-4-yl]amino}ethyl]-2-fluorophenyl}-2,2-difluoro-N-methylacetamide] here?
The IC50 was 86.3 nM.

`Cc1nc(N[C@H](C)c2cccc(C(F)(F)C(C)(C)O)c2F)c2cc(P(C)(=O)C(C)C)ncc2n1` (single isomer, unassigned) [Example 72] was tested. Which IC50 did it give?
The IC50 was 24.3 nM.

`CCP(C)(=O)c1cc2c(N[C@H](C)c3cccc(C(F)(F)C(C)O)c3F)nc(C)nc2cn1` (single isomer, unassigned) [Example 74, (2R*)-1-{3-[(1R)-1-{{6-[ethyl(methyl)phosphoryl]-2-methylpyrido[3,4-d]pyrimidin-4-yl}amino)ethyl]-2-fluorophenyl}-1,1-difluoropropan-2-ol] was tested. Which IC50 did it give?
Its IC50 is 24.6 nM.

`Cc1nc(N[C@H](C)c2cccc(C(F)(F)F)c2C)c2cc(P3(=O)CCN(C(=O)C4(CO)CC4)CC3)ncc2n1` [Example 178, 1-[1-(hydroxymethyl)cyclopropane-1-carbonyl]-4-[2-methyl-4-{{(1R)-1-[2-methyl-3-(trifluoromethyl)phenyl]ethyl}amino)pyrido[3,4-d]pyrimidin-6-yl]-1,4lambda^5-azaphosphinan-4-one] was tested. Which IC50 did it give?
The IC50 was 7.94 nM.

Which IC50 does the source give for `CC(=O)N1CCP(=O)(c2cc3c(N[C@H](C)c4cccc(C(F)(F)C(=O)O)c4F)nc(C)nc3cn2)CC1` [Example 43, {3-[(1R)-1-{[6-(1-acetyl-4-oxo-1,4lambda^5-azaphosphinan-4-yl)-2-methylpyrido[3,4-d]pyrimidin-4-yl]amino}ethyl]-2-fluorophenyl}(difluoro)acetic acid] here?
Its IC50 is 375 nM.

For `Cc1nc(N[C@H](C)c2cccc(C(F)(F)F)c2C)c2cc(P(C)(C)=O)cnc2n1` [Example 13, 6-(dimethylphosphoryl)-2-methyl-N-{(1R)-1-[2-methyl-3-(trifluoromethyl)phenyl]ethyl}pyrido[2,3-d]pyrimidin-4-amine], which IC50 is on record?
The IC50 was 16.3 nM.

How did the IC50 turn out when `COCC(=O)N1CCP(=O)(c2cc3c(N[C@H](C)c4cccc(C(F)F)c4F)nc(C)nc3cn2)CC1` [Example 154, 4-[4-{{(1R)-1-[3-(difluoromethyl)-2-fluorophenyl]ethyl}amino)-2-methylpyrido[3,4-d]pyrimidin-6-yl]-1-(methoxyacetyl)-1,4lambda^5-azaphosphinan-4-one] was run?
Its IC50 is 6.15 nM.

`CC(=O)N1CCP(=O)(c2cc3c(N[C@H](C)c4cccc(C(F)(F)C(C)(C)O)c4F)nc(C)nc3cn2)CC1` [Example 193] was tested. Which IC50 did it give?
The IC50 was 4.1 nM.
